Patent US20160083357A1, “NOVEL TETRAZOLONE DERIVATIVES” (Hoffmann-La Roche Inc., priority 2013, published 2016)
Like-named read-outs stand apart in the source and are kept apart here.

What was measured:
human CB1 receptors = target: T1, human CB1 receptors (Homo sapiens, UniProt P21554); assay: cAMP assay, human CB1; assay type: cell-based
T1 construct: expressed in transfected cells; host or cells: CHO cells
Description: (§1) CHO cells expressing human CB1 or CB2 receptors are seeded 17-24 hours prior to the experiment 50.000 cells per well in a black 96 well plate with flat clear bottom (Corning Costar #3904) in DMEM (Invitrogen No. 31331), lx HT supplement, with 10% fetal calf serum and incubated at 5% CO2 and 37° C. in a humidified incubator. The growth medium was exchanged with Krebs Ringer Bicarbonate buffer with 1 mM IBMX and incubated at 30° C. for 30 min. Compounds were added to a final assay volume of 100 μl and incubated for 30 min at 30° C. Using the cAMP-Nano-TRF detection kit the assay (Roche Diagnostics) was stopped by the addition of 50 μl lysis reagent (Tris, NaCl, 1.5% Triton X100, 2.5% NP40, 10% NaN3) and 50 μl detection solutions (20 μM mAb Alexa700-cAMP 1:1, and 48 μM Ruthenium-2-AHA-cAMP) and shaken for 2 h at room temperature. The time-resolved energy transfer is measured by a TRF reader (Evotec Technologies GmbH), equipped with a ND:YAG laser as excitation source. The plate is measured twice with the excitation at 355 nm and at the emission with a delay of 100 ns and a gate of 100 ns, total exposure time 10 s at 730 (bandwidth 30 nm) or 645 nm (bandwidth 75 nm), respectively. The FRET signal is calculated as follows: FRET=T730-Alexa730-P(T645-B645) with P=Ru730-B730/Ru645-B645, where T730 is the test well measured at 730 nM, T645 is the test well measured at 645 nm, B730 and B645 are the buffer controls at 730 nm and 645 nm, respectively. cAMP content is determined from the function of a standard curve spanning from 10 μM to 0.13 nM cAMP.
(§2) EC50 values were determined using Activity Base analysis (ID Business Solution, Limited). The EC50 values for a wide range of cannabinoid agonists generated from this assay were in agreement with the values published in the scientific literature.

human CB2 receptors = target: T2, human CB2 receptors (Homo sapiens, UniProt P34972); assay: cAMP assay, human CB2; assay type: cell-based
T2 construct: expressed in transfected cells; host or cells: CHO cells
T2 sequence (P34972 whole entry): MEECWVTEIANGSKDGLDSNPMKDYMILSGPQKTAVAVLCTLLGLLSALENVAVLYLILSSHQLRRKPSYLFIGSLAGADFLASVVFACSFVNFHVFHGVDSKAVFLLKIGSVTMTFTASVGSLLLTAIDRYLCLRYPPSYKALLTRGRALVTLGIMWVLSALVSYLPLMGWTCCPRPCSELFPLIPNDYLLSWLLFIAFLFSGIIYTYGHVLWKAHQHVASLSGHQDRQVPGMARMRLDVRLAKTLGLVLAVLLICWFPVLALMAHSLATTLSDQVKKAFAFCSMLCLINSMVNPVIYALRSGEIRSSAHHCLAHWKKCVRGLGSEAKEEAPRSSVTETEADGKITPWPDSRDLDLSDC
Description: as §1, §2

[1] = functional cAMP assay, CHO cells expressing human CB1, read-out: Ec50: CB1 - hu cAMP
[2] = functional cAMP assay, CHO cells expressing human CB2, read-out: Ec50: CB2 - hu cAMP

T1 sequence (P21554 whole entry): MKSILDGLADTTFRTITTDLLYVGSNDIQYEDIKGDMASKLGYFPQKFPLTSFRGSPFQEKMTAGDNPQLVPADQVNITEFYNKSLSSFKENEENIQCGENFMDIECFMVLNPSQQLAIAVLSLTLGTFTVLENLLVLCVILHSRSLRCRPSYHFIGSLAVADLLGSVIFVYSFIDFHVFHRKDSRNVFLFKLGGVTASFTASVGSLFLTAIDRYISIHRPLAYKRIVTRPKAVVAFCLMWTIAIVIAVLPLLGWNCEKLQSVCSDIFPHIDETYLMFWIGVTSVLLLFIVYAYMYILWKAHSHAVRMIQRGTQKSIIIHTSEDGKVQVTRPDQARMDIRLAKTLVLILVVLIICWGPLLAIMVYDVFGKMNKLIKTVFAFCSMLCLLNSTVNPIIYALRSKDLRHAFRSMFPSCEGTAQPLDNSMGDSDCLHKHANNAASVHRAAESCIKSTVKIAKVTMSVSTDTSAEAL

EC50 (human CB1 receptors; [1]) [nM]	EC50 (human CB2 receptors; [2]) [nM]	Compound	EC50 (human CB1 receptors) [nM]	EC50 (human CB2 receptors) [nM]
> 10000	28.5	Cc1cc(C2CCCN2C(=O)n2nnn(-c3cccc(OC(F)(F)F)c3)c2=O)on1 (centres unmarked) [Example 75, 1-[2-(3-Methyl-isoxazol-5-yl)-pyrrolidine-1-carbonyl]-4-(3-trifluoromethoxy-phenyl)-1,4-dihydro-tetrazol-5-one]		
> 10000	9.7	Cc1cc(C2CCCN2C(=O)n2nnn(-c3cccc(Cl)c3)c2=O)on1 (centres unmarked) [Example 74, 1-(3-Chloro-phenyl)-4-[2-(3-methyl-isoxazol-5-yl)-pyrrolidine-1-carbonyl]-1,4-dihydro-tetrazol-5-one]		
> 10000	67	O=C(CN1CCN(C(=O)n2nnn(-c3cccc(OC(F)(F)F)c3)c2=O)CC1)N1CCOCC1 [Example 90, 1-[4-(2-Morpholin-4-yl-2-oxo-ethyl)-piperazine-1-carbonyl]-4-(3-trifluoromethoxy-phenyl)-1,4-dihydro-tetrazol-5-one]		
> 10000	1990	CCOC(=O)Cn1nnn(-c2cccc(Cl)c2)c1=O [Example 114, [4-(3-Chloro-phenyl)-5-oxo-4,5-dihydro-tetrazol-1-yl]-acetic acid ethyl ester]		
> 10000	16	O=C(N1CCOCC1)n1nnn(-c2cccc(Cl)c2Cl)c1=O [Example 131, 1-(2,3-dichlorophenyl)-4-(morpholine-4-carbonyl)tetrazol-5-one]		
> 10000	9.5	COCCN(C(=O)n1nnn(-c2cccc(OC(F)(F)F)c2)c1=O)C(C)C [Example 84, 5-Oxo-4-(3-trifluoromethoxy-phenyl)-4,5-dihydro-tetrazole-1-carboxylic acid isopropyl-(2-methoxy-ethyl)-amide]		
> 10000	27	CCN(C(C)=O)C1CCN(C(=O)n2nnn(-c3cccc(OC(F)(F)F)c3)c2=O)C1 (centres unmarked) [Example 72, N-Ethyl-N-{1-[5-oxo-4-(3-trifluoromethoxy-phenyl)-4,5-dihydro-tetrazole-1-carbonyl]-pyrrolidin-3-yl}-acetamide]		
> 10000	9.2	O=C(N1CCOCC1)n1nnn(-c2cccc(C(F)(F)F)c2)c1=O [Example 120, 1-(morpholine-4-carbonyl)-4-[3-(trifluoromethyl)phenyl]tetrazol-5-one]		
> 10000	18	Cn1ccc2cc(-n3nnn(C(=O)N4CCOCC4)c3=O)ccc21 [Example 133, 1-(1-methylindol-5-yl)-4-(morpholine-4-carbonyl)tetrazol-5-one]		
> 10000	507	C[C@@H]1CN(C(=O)n2nnn(-c3cccc(Cl)c3)c2=O)C[C@H](C)O1 [Example 136, 1-(3-chlorophenyl)-4-[(2R,6S)-2,6-dimethylmorpholine-4-carbonyl]tetrazol-5-one]		
> 10000	16.7	CCN(C(C)=O)C1CCN(C(=O)n2nnn(-c3cccc(Cl)c3)c2=O)C1 (centres unmarked) [Example 71, N-{1-[4-(3-Chloro-phenyl)-5-oxo-4,5-dihydro-tetrazole-1-carbonyl]-pyrrolidin-3-yl}-N-ethyl-acetamide]		
> 10000	0.6	CC1(C)CCN(C(=O)n2nnn(-c3cccc(Cl)c3)c2=O)CC1 [Example 77, 1-(3-Chloro-phenyl)-4-(4,4-dimethyl-piperidine-1-carbonyl)-1,4-dihydro-tetrazol-5-one]		
> 10000	8	Cn1ccc2ccc(-n3nnn(C(=O)N4CCOCC4)c3=O)cc21 [Example 134, 1-(1-methylindol-6-yl)-4-(morpholine-4-carbonyl)tetrazol-5-one]		

Second part, the compound before the results:

Compound	EC50 (human CB1 receptors; [1]) [nM]	EC50 (human CB2 receptors; [2]) [nM]	EC50 (human CB1 receptors) [nM]	EC50 (human CB2 receptors) [nM]
CC(=O)N[C@H]1CCN(C(=O)n2nnn(-c3ccc(Cl)cc3)c2=O)C1 [Example 70, N—{(S)-1-[4-(4-Chloro-phenyl)-5-oxo-4,5-dihydro-tetrazole-1-carbonyl]-pyrrolidin-3-yl}-acetamide]	> 10000	32.1		
CCN(CCOC)C(=O)n1nnn(-c2ccc(Cl)cc2)c1=O [Example 82, 4-(4-Chloro-phenyl)-5-oxo-4,5-dihydro-tetrazole-1-carboxylic acid ethyl-(2-methoxy-ethyl)-amide]			> 10000	3.3
O=C(N1CCC(c2ccccc2)C1)n1nnn(-c2cccc(F)c2)c1=O (centres unmarked) [Example 41, 1-(3-Fluoro-phenyl)-4-(3-phenyl-pyrrolidine-1-carbonyl)-1,4-dihydro-tetrazol-5-one]	> 10000	3.2		
Cn1nccc1C1CCCN1C(=O)n1nnn(-c2cccc(F)c2)c1=O (centres unmarked) [Example 18, 1-(3-Fluoro-phenyl)-4-[2-(2-methyl-2H-pyrazol-3-yl)-pyrrolidine-1-carbonyl]-1,4-dihydro-tetrazol-5-one]	> 10000	219		
CCOC(=O)C(C)(C)n1nnn(-c2cccc(F)c2)c1=O [Example 16, 2-[4-(3-Fluoro-phenyl)-5-oxo-4,5-dihydro-tetrazol-1-yl]-2-methyl-propionic acid ethyl ester]	> 10000	327		
CC(=O)NC1CCN(C(=O)n2nnn(-c3cccc(F)c3)c2=O)CC1 [Example 26, N-{1-[4-(3-Fluoro-phenyl)-5-oxo-4,5-dihydro-tetrazole-1-carbonyl]-piperidin-4-yl}-acetamide]	> 10000	17.8		
COC(=O)C1CN(C(=O)n2nnn(-c3cccc(F)c3)c2=O)C1 [Example 24, 1-[4-(3-Fluoro-phenyl)-5-oxo-4,5-dihydro-tetrazole-1-carbonyl]-azetidine-3-carboxylic acid methyl ester]	> 10000	122		
CCN(Cc1ccncc1)C(=O)n1nnn(-c2cccc(F)c2)c1=O [Example 6, 4-(3-Fluoro-phenyl)-5-oxo-4,5-dihydro-tetrazole-1-carboxylic acid ethyl-pyridin-4-ylmethyl-amide]	> 10000	0.8		
CCC(=O)N1CCN(C(=O)n2nnn(-c3cccc(F)c3)c2=O)CC1 [Example 39, 1-(3-Fluoro-phenyl)-4-(4-propionyl-piperazine-1-carbonyl)-1,4-dihydro-tetrazol-5-one]	> 10000	497		
CC(=O)NC1CCN(C(=O)n2nnn(-c3cccc(F)c3)c2=O)C1 (centres unmarked) [Example 23, N-{1-[4-(3-Fluoro-phenyl)-5-oxo-4,5-dihydro-tetrazole-1-carbonyl]-pyrrolidin-3-yl}-acetamide]	> 10000	31.4		
COC(=O)C1(NC(=O)OC(C)(C)C)CCN(C(=O)n2nnn(-c3cccc(F)c3)c2=O)CC1 [Example 62, 4-tert-Butoxycarbonylamino-1-[4-(3-fluoro-phenyl)-5-oxo-4,5-dihydro-tetrazole-1-carbonyl]-piperidine-4-carboxylic acid methyl ester]	> 10000	61.4		
COCCN(CCOC)C(=O)n1nnn(-c2cccc(F)c2)c1=O [Example 57, 4-(3-Fluoro-phenyl)-5-oxo-4,5-dihydro-tetrazole-1-carboxylic acid bis-(2-methoxy-ethyl)-amide]	> 10000	8.5		
CCCn1nnn(C(=O)N(C)c2cccnc2)c1=O [Example 36, 5-Oxo-4-propyl-4,5-dihydro-tetrazole-1-carboxylic acid methyl-pyridin-3-yl-amide]	> 10000	874		
O=C(N1CCS(=O)(=O)CC1)n1nnn(-c2cccc(F)c2)c1=O [Example 29, 1-(1,1-Dioxo-1λ6-thiomorpholine-4-carbonyl)-4-(3-fluoro-phenyl)-1,4-dihydro-tetrazol-5-one]	> 10000	41.6		
CC(=O)N(C)C1CCN(C(=O)n2nnn(-c3cccc(F)c3)c2=O)C1 (centres unmarked) [Example 49, N-{1-[4-(3-Fluoro-phenyl)-5-oxo-4,5-dihydro-tetrazole-1-carbonyl]-pyrrolidin-3-yl}-N-methyl-acetamide]	> 10000	14.3		
CN(C(=O)n1nnn(-c2cccc(F)c2)c1=O)c1cccnc1 [Example 33, 4-(3-Fluoro-phenyl)-5-oxo-4,5-dihydro-tetrazole-1-carboxylic acid methyl-pyridin-3-yl-amide]	> 10000	25		
CCOC(=O)N1CCN(C(=O)n2nnn(-c3cccc(F)c3)c2=O)CC1 [Example 50, 4-[4-(3-Fluoro-phenyl)-5-oxo-4,5-dihydro-tetrazole-1-carbonyl]-piperazine-1-carboxylic acid ethyl ester]	> 10000	567		
CC(=O)N[C@H]1CCN(C(=O)n2nnn(-c3cccc(F)c3)c2=O)C1 [Example 42, N—{(S)-1-[4-(3-Fluoro-phenyl)-5-oxo-4,5-dihydro-tetrazole-1-carbonyl]-pyrrolidin-3-yl}-acetamide]	> 10000	91.1		
